The source of these data is US7879863B2, “Aniline derivatives” (Ajinomoto Co., Inc., priority 2004, dated 2011).

SMILES strings stand for the structures. Where a name gives a salt, the structure may show the parent alone. Marks after values point to notes of the source that are not given here.

T1 sequence (P06870 25-262): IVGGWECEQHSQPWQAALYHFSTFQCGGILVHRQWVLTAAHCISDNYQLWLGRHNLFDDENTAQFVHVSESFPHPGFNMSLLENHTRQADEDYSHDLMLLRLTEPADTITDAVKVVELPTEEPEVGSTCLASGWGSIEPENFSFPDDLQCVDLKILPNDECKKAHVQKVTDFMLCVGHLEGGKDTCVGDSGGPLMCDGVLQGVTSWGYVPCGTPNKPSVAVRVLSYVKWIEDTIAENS

The test system of the first assay is acetic acid writhing model. The experiment in a line: Efficacy evaluation in acetic acid writhing model. The class given is in vivo, male ICR mice. To be noted: 10 mg/kg oral, mice, writhing number 5 to 20 min after 0.9% acetic acid i.p.; mean ± standard error. The procedure: Efficacy evaluation in acetic acid writhing model
The acetic acid writhing model was subjected to evaluation according to the method of European Journal of Pharmacology, 352, 47-52 (1998). To be specific, a solution of the test compound adjusted to the objective concentration with a 0.5 (w/v) % tragacanth gum solution was orally administered to male ICR mice (CHARLES RIVER LABORATORIES JAPAN, INC.) at 5 mL/kg, and a 0.9% acetic acid solution adjusted with a physiological saline was intraperitoneally administered 60 min later at 5 mL/kg. The number of writhing for 15 min from 5 min to 20 min after administration of a 0.9% acetic acid solution was counted and taken as the writhing number of the test compound. A mouse, to which a 0.5 (w/v) % tragacanth gum (TG) solution was orally administered at 5 ml/kg instead of the test compound, was used as a control. The suppression rate (%) was calculated by subtracting the relative value of each mouse from the relative value when the average value of the control group is 100%. As a Reference Example, the value obtained by oral administration of a positive control drug, indomethacin, instead of the test compound is shown. […] For testing the significant difference, Dunnett's t-test was used, and statistic significance as shown by P<0.05 and P<0.01 relative to the TG control group is shown in the Table with * and **, respectively.
As for `COc1ccc2c(c1)c(CC(=O)O)c(C)n2C(=O)c1ccc(Cl)cc1` [Indomethacin, indomethacin, reference compound], the “suppression rate (%)” value was 64.1 ± 10.8** %.

The next assay has as its target T1, human activated tissue kallikrein (Homo sapiens, UniProt P06870).
T1 construct: 6xHis (C); made in house; host or cells: baculovirus / Sf21 insect cells
The experiment in a line: Measurement of tissue kallikrein inhibitory activity. It is filed as biochemical. To be noted: activated tissue kallikrein activity (initial rate) inhibited by 50%; substrate D-valyl-L-leucyl-L-arginyl-p-nitroanilide; 37° C. The procedure: Measurement of tissue kallikrein inhibitory activity
Expression and purification of human activated tissue kallikrein was performed according to the method of Angermann (A. Angermann et al., Eur. J. Biochem., 206, 225-233 (1992)). That is, a gene was prepared by adding 6 residues of histidine to the C-terminal side of human pancreas kallikrein gene (D. Fukuchima et al, Biochemistry, 24, 8037-8043 (1985)), and tissue prokallikrein was expressed by a system using a baculovirus-insect cell (Sf21). Purified human tissue kallikrein was obtained from the culture supernatant by purification using a nickel chelate column (Ni-NTA, QIAGEN K. K.), digestion with TPCK trypsin and further nickel chelate column. To a solution (100 μL) of the human activated tissue kallikrein adjusted to 0.0625 μg/mL with an assay buffer (100 mM tris-hydrochloride buffer (pH 8.4) containing 0.2M NaCl, 0.02% Tween 20, and 0.1% PEG 6000) was added an assay buffer (containing 2% DMSO) solution (50 μL) of the test compound adjusted to the objective concentration, and the mixture was incubated at 37° C. for 10 minutes (min=minutes). Then, a 4 mM solution (50 μL) of D-valyl-L-leucyl-L-arginyl-p-nitroanilide hydrochloride (BACHEM AG) adjusted with the assay buffer was added, the absorbance was measured and the reaction rate was determined. As a control, a DMSO solution (50 μL) was added instead of the solution of the test compound. Absorbance was measured at a wavelength of 405 nm at 60 second intervals for 90 min using a Benchmark Plus Microplate Reader (BIO RAD). The negative logarithm value (abbreviated as pIC50) of the test compound concentration when the activated tissue kallikrein activity (initial rate) was inhibited by 50% without addition of the test compound was used as an index of the activated tissue kallikrein inhibitory activity.
In turn, `CC(C)[C@H](CNC(=O)Cc1ccccc1)Nc1ccc(C(F)(F)F)cc1` [Compound A-1, N-((2R)-3-methyl-2-{[4-(trifluoromethyl)phenyl]amino}butyl)-2-phenylacetamide trifluoroacetate] gave an IC50 of 21.9 nM.

`CC(C)[C@H](CNC(=O)CCN)Nc1ccc(C(F)(F)F)cc1` [Compound A-3]: the IC50 was 25.7 nM.

The compound `CC(C)[C@H](CNC(=O)Cc1c[nH]c2ccccc12)Nc1ccc(C(F)(F)F)cc1` [Compound A-4] showed a 50% inhibitory concentration (IC50) of 29.5 nM.

Consider `CC(C)[C@H](CNC(=O)CCc1c[nH]c2ccccc12)Nc1ccc(C(F)(F)F)cc1` [Compound A-5], for which half-maximal inhibition (IC50) was put at 50.1 nM.

On to `CC(C(=O)NC[C@H](Nc1ccc(C(F)(F)F)cc1)C(C)C)c1ccc(-c2ccccc2)c(F)c1` (stereo partly drawn) [Compound A-6], for which inhibition was half-maximal at 57.5 nM (IC50).

Compound `CC(C)[C@H](CNC(=O)Cc1cccnc1)Nc1ccc(C(F)(F)F)cc1` [Compound A-7] showed an IC50 of 85.1 nM.

Take `CC(C)[C@H](CNC(=O)[C@H](N)c1ccccc1)Nc1ccc(C(F)(F)F)cc1` [Compound A-9]: the IC50 is 102 nM. The IC50 values of the last two compounds are within 1.5-fold of each other.

`CC(C)[C@H](CNC(=O)c1cccc(N(C)C)c1)Nc1ccc(C(F)(F)F)cc1` [Compound A-10] had an IC50 of 145 nM.

The compound `CC(C)[C@H](CNC(=O)[C@@H](O)c1ccccc1)Nc1ccc(C(F)(F)F)cc1` [Compound A-11] gave an IC50 of 158 nM. The IC50 values of the last two compounds are within 1.5-fold of each other.

Take `CC(C)[C@H](CNC(=O)C(=O)c1c[nH]c2ccccc12)Nc1ccc(C(F)(F)F)cc1` [Compound A-12]: the IC50 is 162 nM.

Turning to `CC(C)[C@H](CNC(=O)/C=C/c1ccncc1)Nc1ccc(C(F)(F)F)cc1` [Compound A-13], the 50% inhibitory concentration (IC50) is 178 nM.

In the case of `CC(C)[C@H](CNC(=O)C1CCN(c2ccncc2)CC1)Nc1ccc(C(F)(F)F)cc1` [Compound A-14], the concentration for half-maximal inhibition (IC50) is 182 nM.

`CC(C)[C@H](CNC(=O)[C@@H](N)C(C)C)Nc1ccc(C(F)(F)F)cc1` [Compound A-15] showed a 50% inhibitory concentration (IC50) of 182 nM.

Compound `CC(C)[C@H](CNC(=O)C1(c2ccccc2)CC1)Nc1ccc(C(F)(F)F)cc1` [Compound A-16] had an IC50 of 263 nM.

Regarding `CC(C)[C@H](CNC(=O)[C@@H](C)N)Nc1ccc(C(F)(F)F)cc1` [Compound A-17], the half-inhibitory concentration (IC50) is 295 nM.

Compound `CC(C)[C@H](CNC(=O)[C@@H](N)CO)Nc1ccc(C(F)(F)F)cc1` [Compound A-18] gave an IC50 of 309 nM. This IC50 and that of the compound before are within 1.5-fold of each other.

As to `O=C(Cc1ccccc1)NC[C@H]1CCCN1c1ccc(C(F)(F)F)cc1` [Compound A-39], the half-inhibitory concentration (IC50) was 41.7 nM.

The compound `O=C(Cc1ccccc1)NC[C@@H]1CCCN1c1ccc(C(F)(F)F)cc1` [Compound A-40] showed an IC50 of 245 nM.

As to `O=C(Cc1c[nH]c2ccccc12)NC[C@H]1CCCN1c1ccc(C(F)(F)F)cc1` [Compound A-41], half-maximal inhibition (IC50) was put at 209 nM.

For `CC(C)[C@H](CCNC(=O)c1ccccc1)Nc1ccc(C(F)(F)F)cc1` [Compound A-47, N-((3S))-4-methyl-3-{[4-(trifluoromethyl)phenyl]amino}pentyl)benzamide trifluoroacetate], the midpoint of inhibition, the IC50, lay at 209 nM.

For the compound `CC(C)[C@H](CCNC(=O)C1CCN(c2ccncc2)CC1)Nc1ccc(C(F)(F)F)cc1` [Compound A-48], inhibition was half-maximal at 46.8 nM (IC50).

Compound `CC(C)[C@H](CCNC(=O)c1ccc2ncccc2c1)Nc1ccc(C(F)(F)F)cc1` [Compound A-49] had a half-inhibitory concentration (IC50) of 46.8 nM.

Consider `CC(C)[C@H](CCNC(=O)Cc1cccs1)Nc1ccc(C(F)(F)F)cc1` [Compound A-50], for which the half-maximal inhibitory concentration (IC50) is 107 nM.

As for `CC(C)[C@H](CCNC(=O)Cc1c[nH]c2ccccc12)Nc1ccc(C(F)(F)F)cc1` [Compound A-51], the IC50 is 129 nM.

The compound `CC(C)[C@H](CCNC(=O)C1CCN(C(C)C)CC1)Nc1ccc(C(F)(F)F)cc1` [Compound A-52] gave a concentration for half-maximal inhibition (IC50) of 151 nM.

Consider `CC(C)[C@H](CNC(=O)Cc1ccccc1)Nc1ccc(C(F)(F)F)cc1CO` [Compound A-55, N-((2R)-2-{[2-(hydroxymethyl)-4-(trifluoromethyl)phenyl]amino}-3-methylbutyl)-2-phenylacetamide], for which half-maximal inhibition (IC50) required 20 nM.

In the case of `CC(C)[C@H](CNC(=O)Cc1ccccc1)Nc1ccc(C(F)(F)F)cc1N` [Compound A-56, N-((2R)-2-{[2-amino-4-(trifluoromethyl)phenyl]amino}-3-methylbutyl)-2-phenylacetamide trifluoroacetate], the IC50 was 50.1 nM.

In turn, `CC(C)[C@H](CNC(=O)[C@@H](N)Cc1c[nH]c2ccccc12)Nc1ccc(C(F)(F)F)cc1N` [Compound A-57] had a concentration for half-maximal inhibition (IC50) of 36.3 nM.

Compound `CC(C)[C@H](CNC(=O)Cc1c[nH]c2ccccc12)Nc1ccc(C(F)(F)F)cc1N` [Compound A-58] showed an IC50 of 49 nM.

Turning to `CC(C)[C@H](CNC(=O)Cc1ccccn1)Nc1ccc(C(F)(F)F)cc1N` [Compound A-59], half-maximal inhibition (IC50) required 83.2 nM.

For the compound `CC(C)[C@H](CNC(=O)[C@H](N)Cc1c[nH]c2ccccc12)Nc1ccc(C(F)(F)F)cc1N` [Compound A-60], the IC50 is 135 nM.

On to `O=C(N[C@H]1CCN(c2ccc(C(F)(F)F)cc2)C1)C1CCN(c2ccncc2)CC1` [Compound B-2], for which the IC50 was 204 nM.

Compound `CC(C)[C@H](CC(=O)NCc1ccccc1)Nc1ccc(C(F)(F)F)cc1` [Compound C-40, (3S)-N-benzyl-4-methyl-3-{[4-(trifluoromethyl)phenyl]amino}pentanamide] had a 50% inhibitory concentration (IC50) of 64.6 nM. This IC50 lies about 3.2-fold lower than the previous one.

`CC(C)[C@H](CC(=O)NCc1ccccn1)Nc1ccc(C(F)(F)F)cc1` [Compound C-41] showed a concentration for half-maximal inhibition (IC50) of 302 nM.

Compound `CC(C)[C@H](CC(=O)NCCc1ccccc1)Nc1ccc(C(F)(F)F)cc1` [Compound C-42] had a half-maximal inhibitory concentration (IC50) of 129 nM. Against the preceding compound, the IC50 is about 2.3-fold lower.

Turning to `CC(C)[C@H](CC(=O)NCCc1ccccn1)Nc1ccc(C(F)(F)F)cc1` [Compound C-43], half-maximal inhibition (IC50) was put at 91.2 nM.

For the compound `CCNc1ccc(C(F)(F)F)cc1CO` [Compound E-2], half-maximal inhibition (IC50) was put at 112 nM. This IC50 and that of the compound before are within 1.5-fold of each other.

Turning to `CCCN1CCC(O)c2cc(C(F)(F)F)ccc21` (stereo not drawn) [Compound E-3, 1-propyl-6-(trifluoromethyl)-1,2,3,4-tetrahydroquinolin-4-ol], half-maximal inhibition (IC50) was put at 245 nM.

Turning to `CCCCN1CCC(O)c2cc(C(F)(F)F)ccc21` (stereo not drawn) [Compound E-4], 257 nM corresponded to half-maximal inhibition (IC50).

For a further assay, the system named is DSS-induced enteritis model. The experiment in a line: Efficacy evaluation in DSS-induced enteritis model. Particulars: 200 mg/kg oral, mice, 5% DSS; relative to non-treatment group = 100%; mean ± standard error. It is filed as in vivo, female CBA mice. The source says: Efficacy evaluation in DSS-induced enteritis model
The dextran sodium sulfate (DSS)-induced enteritis model was subjected to evaluation by a partly-modified methods of Gastroenterology, 98, 694-702 (1990) and Cytokine, 11, 890-896 (1998). A 5 (w/v) % DSS (manufactured by Sigma, MW 5,000) solution was freely taken by female CBA mice (CHARLES RIVER LABORATORIES JAPAN, INC.) for a given period to induce enteritis. A solution of the test compound adjusted to the objective concentration with a 0.5 (w/v) % tragacanth gum (TG) solution was orally administered at 5 mL/kg. Upon autopsy, the length, weight and the like of the large intestine were evaluated and used as an index of the onset of inflammatory enteritis. As a control, a mouse, to which a 0.5 (w/v) % TG solution was orally administered at 5 mL/kg instead of the test compound, was used. The length and weight of the large intestine are expressed as the relative value when the average value of the non-treatment group is 100%. As a Reference Example, the values obtained by oral administration of a positive control drug, salazosulfapyridine, instead of the test compound are shown. […] For testing the significant difference, Dunnett's t-test was used, and statistic significance as shown by P<0.05 and P<0.01 relative to the TG control group is shown in the Table with * and **, respectively.
On to `O=C(O)c1cc(/N=N/c2ccc(S(=O)(=O)Nc3ccccn3)cc2)ccc1O` [salazosulfapyridine, reference compound], for which the “large intestine length (%)” value is listed as 78.1 ± 1.5* % and the “large intestine weight (%)” value is given as 123.0 ± 1.9** %.

The IC50 is the concentration at which inhibition is half-maximal. A low value points to greater potency.
